From patent publication US20210267978A1, “NANOPARTICLE FORMULATIONS OF IKE AND METHODS OF USE THEREOF” (The Trustees of Columbia University in the City of New York, priority 2018, published 2021)

Columns and labels:
SUDHL-6 cells = experiment: Free fatty acid cell survival test with or without IKE (CellTiter-Glo); type: cell-based; settings: for toxicity of free fatty acid to cells: 100 μM, 24 hours; for effect of free fatty acid on IKE-induced ferroptosis: 10 μM fatty acid with IKE
From the text: Relative Area Under Curve (AUC) to DMSO cotreatment was used to indicate the sensitization or protection effect of free fatty acids to IKE-induced ferroptosis.

[1] = Erastin and IKE solubility measurements (nephelometry); type: physicochemical
Protocol: Solubility measurement samples were prepared in a 96-well Corning Costar plate with two at 1% and 5% DMSO v/v with a total sample volume of 200 μL in MilliQ water. A BMG Labtech NEPHELOstar nephelometer was used to measure turbidity of the samples with the following parameters per the instrument manufacturer: Gain=80, Laser Focus=2.50 mm, and Laser Intensity=90%. Samples were shaken in the nephelometer by orbital shaking for 3 s prior to the turbidity measurement. Sample values were blanked in the instrument software using the corresponding water and DMSO condition values. Turbidity 4000 NTU Calibration Standard-Formazin (Millipore-Sigma) was used as a positive control for all turbidity measurements. The turbidity of each sample was measured within 20 minutes of initial preparation. After the initial measurement, the sample plates were covered with aluminum sealing film and allowed to sit overnight at room temperature prior to re-measuring.

SUDHL6 cells [2] = experiment: qPCR analysis of gene expression in cell culture; type: cell-based; settings: SUDHL6 cells
Protocol: To perform qPCR analysis in cell culture, DLBCL cells were treated with 0-10 μM IKE, Fer-1, or β-Me for the indicated times. RNA was extracted using the Qiashredder and Qiagen RNeasy Mini kits (Qiagen) according to the manufacture's protocol. 2 μg RNA from each sample was reversed transcribed to cDNA using a High Capacity cDNA Reverse Transcription Kit (Thermo Fisher Scientific, 4368814). Quantitative PCR reactions were performed using Power SYBR Green PCR Master Mix (Applied Biosystems) with triplicate measurement on ViiA 7 Real-Time PCR instrument (Thermo Fischer). HPRT1 was used as an internal reference. Differences in mRNA levels compared with HPRT1 were computed between vehicle and experimental groups using the ΔΔCt method. The primers used in the study were listed below.

DLBCL cell lines = experiment: Fer-1 co-treatment rescue of IKE-induced cell death (CellTiter-Glo); type: cell-based; settings: co-treatment with IKE, 24 hours
Protocol: The cell viability was measured by co-treating cells with a two-fold series dilution of IKE (starting from 100 μM) and two-fold series dilution of Fer-1 (starting from 200 μM) for 24 hours followed by a Cell Titor-Glo luminescent cell viability test. […] Data are plotted as the mean±s.d., n=2 biologically replicates. Three independent experiments were performed with similar results.
DLBCL cells were plated at 10,000 cells per well in white 384-well plates (32 μL per well) in technical duplicates and incubated overnight. The cells were then treated with 8 μL medium containing a two-fold dilution series of vehicle (DMSO), IKE (starting from 100 μM) with or without Fer-1 (starting from 200 μM). After 24 h incubation, 40 μL of 50% CellTiter-Glo (Promega) 50% cell culture medium was added to each well and incubated at room temperature with shaking for 15 min. Luminescence was measured using a Victor X5 plate reader (PerkinElmer). All cell viability data were normalized to the DMSO vehicle condition. Experiments were performed three independent times with different passages for each cell line.

SUDHL6 cells [3] = experiment: C-11 BODIPY lipid peroxidation measurement (flow cytometry); type: cell-based; settings: 10 μM fer-1 co-treatment
Protocol: 0.20 million SUDHL-6 cells were seeded in sixc^− well plates and treated with DMSO, IKE, or Fer-1 at specific concentration. The final cell density of 0.05 million cells/mL. After 24 h, cells were harvested by centrifuging at 300×g for 5 min. Cells were resuspended in 500 μL HBSS containing 2 μM C11-BODIPY (BODIPY 581/591 C11) (Thermo Fisher Scientific, D3861) and incubated at 37° C. for 15 min. Cells were pelleted and resuspended in HBSS. Fluorescence intensity was measured on the FL1 channel with gating to record live cells only (gate constructed from DMSO treatment group). A minimum of 10,000 cells were analyzed per condition.

SUDHL 6 cells = experiment: Measurement of IKE PEG-PLGA cellular activity (CellTiter-Glo, 24 h); type: cell-based; settings: fer-1 co-treatment
Protocol: DLBCL cells or HT-1080 cells were plated at 2,000 cells per well in white 384-well plates (32 μL per well) in technical duplicates and incubated overnight. The cells were then treated with 8 μL medium containing a two-fold dilution series of vehicle 1 (DMSO), IKE, Fer-1, vehicle 2 (unfunctional PEG-PLGA nanoparticles), or IKE PEG-PLGA nanoparticles. The final concentration of IKE in PEG-PLGA nanoparticles were measured by LC-MS as described in the sections below. After 24 h incubation with compounds, 40 μL of 50% CellTiter-Glo (Promega) 50% cell culture medium was added to each well and incubated at room temperature with shaking for 15 min. Luminescence was measured using a Victor X5 plate reader (PerkinElmer). All cell viability data were normalized to the DMSO vehicle condition. Experiments were performed in three independent times with different passages for each cell line.

GSH = settings: Narang et al., 2007; Lo et al., 2010; cited from earlier work
SUDHL6 cells [4] = experiment: Reduced glutathione measurement in cell culture (Fluorometric-Green); type: cell-based; settings: 10 μM β-ME co-treatment, 24 h
Protocol: 2.4 million cells were incubated with DMSO, IKE, or β-mercaptoethanol (β-Me) at a density of 0.2 million cells/mL for 24 h. Cells were collected and washed with cold PBS once. Cell number was counted by Vi-Cell. Cells were resuspended in ice cold RIPA buffer (Thermo Fisher Scientific, 89900) with 100 μL/one million cells. Samples were centrifuged for 15 min at 4° C. at 17,000×g. The resulting supernatant was deproteinized using a trichloroacetic acid and sodium bicarbonate solution and kept on ice. The sample was diluted with assay buffer provided in GSH/GSSG Ratio Detection Assay Kit (Abcam, ab13881) ten-fold. Reduced glutathione (GSH) levels were determined using Fluorometric-Green provided in the kit following the manufacture's protocol. 384-well (Corning) low volume black flat bottom polystyrene non-treated microplates 1230F99 were used in this experiment.

CCCCC/C=C\C/C=C\C/C=C\C/C=C\CCCC(=O)O [arachidonic acid]
toxicity of free fatty acid to cells (SUDHL-6 cells): toxic to cells

CCOc1ccccc1-n1c(C(C)N2CCN(C(=O)COc3ccc(Cl)cc3)CC2)nc2ccccc2c1=O (stereo not shown) [erastin, reference compound]
water solubility (in words) [1]: low water solubility

CCOC(=O)c1ccc(NC2CCCCC2)c(N)c1 [fer-1, ferrostatin-1, reference compound]
effect of co-treatment on IKE-induced PTGS2 upregulation (SUDHL6 cells [2]; 10 μM Fer-1 with 500 nM IKE for 6 hours): prevented
effect of co-treatment on IKE-induced CHAC1 upregulation (SUDHL6 cells [2]; Fer-1 co-treatment): did not inhibit
effect of co-treatment on cell death induced by IKE (DLBCL cell lines): rescued cell death
effect of co-treatment on IKE-induced lipid ROS signal (C11-BODIPY) (SUDHL6 cells [3]): inhibited this signal
effect of co-treatment on cell death induced by IKE and IKE PEG-PLGA NPs (SUDHL 6 cells): rescued cell death

CCCCCCCC/C=C\CCCCCCCC(=O)O [oleic acid]
effect of free fatty acid on IKE-induced ferroptosis (SUDHL-6 cells): protected against ferroptosis

CCCCCC/C=C\CCCCCCCC(=O)O [palmitoleic acid]
effect of free fatty acid on IKE-induced ferroptosis (SUDHL-6 cells): protected against ferroptosis

O=C(O)c1cc(/N=N/c2ccc(S(=O)(=O)Nc3ccccn3)cc2)ccc1O [sulfasalazine]
IC50 for GSH depletion (GSH): millimolar range

OCCS [β-ME, β-mercaptoethanol, reference compound]
effect of co-treatment on GSH depletion by IKE (SUDHL6 cells [4]): reversed
effect of co-treatment on IKE-induced upregulation of SLC7A11, CHAC1 and PTGS2 mRNAs (SUDHL6 cells [2]; 10 μM β-Me with 500 nM IKE for 6 hours): prevented

CCCCC/C=C\C/C=C\C/C=C\CCCCC(=O)O [γ-linolenic acid]
toxicity of free fatty acid to cells (SUDHL-6 cells): toxic to cells
